Assay results published in ChEMBL document CHEMBL1201862, “PubChem BioAssay data set” (2004).
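Method: 48-hour compound exposure of cells in 96-well plates, five concentrations, linear interpolation of endpoints. GI50: concentration for 50% inhibition of growth.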 The source made the active and inactive calls. Cut-off read from the data, not from the text of the source: active = GI50 up to about 1.1 µM and inactive = higher.

Key:
Test in all cases: inhibition of tumour cell growth, NCI panel, 48 h
[1] = test system: OVCAR-8
[2] = test system: MDA-N
[3] = test system: COLO 205
[4] = test system: U-251
[5] = test system: MOLT-4
[6] = test system: SK-MEL-5
[7] = test system: HCT-15
[8] = test system: M14
[9] = test system: SK-MEL-28
[10] = test system: HCT-116
[11] = test system: OVCAR-3
[12] = test system: NCI/ADR-RES
[13] = test system: MDA-MB-435
[14] = test system: MCF7
[15] = test system: SF-268
[16] = test system: SN12C
[17] = test system: SNB-75
[18] = test system: NCI-H23
[19] = test system: SK-OV-3
[20] = test system: A498

SMILES	GI50 [1]	GI50 [2]	GI50 [3]	GI50 [4]	GI50 [5]	GI50 [6]	GI50 [7] [µM]	GI50 [8]	GI50 [9]	GI50 [10]	GI50 [11]	GI50 [12]	GI50 [13]	GI50 [14]	GI50 [15]	GI50 [16]	GI50 [17]	GI50 [18]	GI50 [19]	GI50 [20]
COc1ccc2nc3c([N+](=O)[O-])ccc4c3c(c2c1)N=CN4CCCN(C)C	1.3 µM (inactive)	4.62 µM (inactive)	0.855 µM (active)	1.65 µM (inactive)	0.23 µM (active)	3.24 µM (inactive)	0.53	4.73 µM (inactive)	10 µM (inactive)	0.419 µM (active)	2.91 µM (inactive)	2.32 µM (inactive)	2.54 µM (inactive)	0.733 µM (active)	2.77 µM (inactive)	1.97 µM (inactive)	2.67 µM (inactive)	4.27 µM (inactive)	4.4 µM (inactive)	5.6 µM (inactive)
CC(=O)OC(C)(C)CCC(=O)[C@](C)(O)[C@H]1[C@H](O)C[C@@]2(C)[C@@H]3CC=C4C(C)=C(OC5OC(CO)C(O)C(O)C5O)C(=O)C[C@@H]4[C@]3(C)C(=O)C[C@]12C (stereo not given in full)	> 100 µM (inactive)	> 100 µM (inactive)	> 100 µM (inactive)	> 100 µM (inactive)	> 100 µM (inactive)	> 100 µM (inactive)	> 100	> 100 µM (inactive)	> 100 µM (inactive)	> 100 µM (inactive)	> 100 µM (inactive)	> 100 µM (inactive)	> 100 µM (inactive)	> 100 µM (inactive)	> 100 µM (inactive)	> 100 µM (inactive)	> 100 µM (inactive)	> 100 µM (inactive)	> 100 µM (inactive)	> 100 µM (inactive)
O=C1CCC(NC(=O)c2ccccc2)C(=O)N1 (stereo not given)	> 100 µM (inactive)	> 100 µM (inactive)	> 100 µM (inactive)	> 100 µM (inactive)	2.97 µM (inactive)	> 100 µM (inactive)	> 100	> 100 µM (inactive)	> 100 µM (inactive)	> 100 µM (inactive)	> 100 µM (inactive)	> 100 µM (inactive)	> 100 µM (inactive)	> 100 µM (inactive)	> 100 µM (inactive)	> 100 µM (inactive)	> 100 µM (inactive)	> 100 µM (inactive)	> 100 µM (inactive)	> 100 µM (inactive)
Cc1ccc(CN2CCN(Cc3ccc(C)o3)C(C)C2)o1 (stereo not given)	> 100 µM (inactive)	> 100 µM (inactive)	> 100 µM (inactive)	> 100 µM (inactive)	> 100 µM (inactive)	> 100 µM (inactive)	> 100	> 100 µM (inactive)	> 100 µM (inactive)	> 100 µM (inactive)	> 100 µM (inactive)	> 100 µM (inactive)	> 100 µM (inactive)	> 100 µM (inactive)	> 100 µM (inactive)	> 100 µM (inactive)	> 100 µM (inactive)	> 100 µM (inactive)	> 100 µM (inactive)	> 100 µM (inactive)
C/C(=N\NC(=S)N(C)CCN(C)C(=S)N/N=C(\C)c1ccccn1)c1ccccn1	0.345 µM (active)	3.71 µM (inactive)	0.247 µM (active)	0.745 µM (active)	0.479 µM (active)	0.431 µM (active)	0.45	> 100 µM (inactive)	1.73 µM (inactive)	0.281 µM (active)	0.174 µM (active)	0.346 µM (active)	> 100 µM (inactive)	2.77 µM (inactive)	0.321 µM (active)	1.05 µM (active)	0.56 µM (active)	4.38 µM (inactive)	4.21 µM (inactive)	0.565 µM (active)
CC(=O)OCC1OC(n2cc(F)c(=O)[nH]c2=O)C(OC(C)=O)C1OC(C)=O (stereo not given)	26 µM (inactive)	11.5 µM (inactive)	12.2 µM (inactive)	13.4 µM (inactive)	4.13 µM (inactive)	56 µM (inactive)	13.7	48.9 µM (inactive)	25.2 µM (inactive)	4.25 µM (inactive)	23.3 µM (inactive)	37.4 µM (inactive)	17 µM (inactive)	1.71 µM (inactive)	12.5 µM (inactive)	32.5 µM (inactive)	23.6 µM (inactive)	75.2 µM (inactive)	> 73.5 µM (inactive)	61.2 µM (inactive)
CCc1nc2cc3cccnc3c(Cl)c2[nH]c1=O	> 100 µM (inactive)	> 100 µM (inactive)	> 100 µM (inactive)	61.5 µM (inactive)	> 100 µM (inactive)	> 100 µM (inactive)	> 100	> 100 µM (inactive)	> 100 µM (inactive)	> 100 µM (inactive)	> 100 µM (inactive)	79.1 µM (inactive)	> 100 µM (inactive)	5.86 µM (inactive)	> 100 µM (inactive)	> 100 µM (inactive)	17.8 µM (inactive)	> 100 µM (inactive)	95.9 µM (inactive)	> 100 µM (inactive)
COc1cc2c(cc1OCCCC(=O)Nc1cc(C(=O)Nc3cc(C(=O)Nc4cc(C(=O)NCCCN(C)C)n(C)n4)n(C)c3)n(C)c1)N=CC1CCCN1C2=O (stereo not given)	33 µM (inactive)	20 µM (inactive)	21.2 µM (inactive)	23.9 µM (inactive)	4.01 µM (inactive)	19.5 µM (inactive)	28.5	24.3 µM (inactive)	17.1 µM (inactive)	51.4 µM (inactive)	40.3 µM (inactive)	39.8 µM (inactive)	21 µM (inactive)	16.8 µM (inactive)	27.9 µM (inactive)	22.5 µM (inactive)	23.9 µM (inactive)	25.8 µM (inactive)	40.6 µM (inactive)	29.2 µM (inactive)
Oc1cc(Cl)cc2cccnc12	0.528 µM (active)	17.9 µM (inactive)	6.65 µM (inactive)	0.971 µM (active)	0.465 µM (active)	0.902 µM (active)	0.552	10.5 µM (inactive)	19.3 µM (inactive)	1.43 µM (inactive)	0.306 µM (active)	0.354 µM (active)	3.52 µM (inactive)	1.04 µM (active)	0.296 µM (active)	1.7 µM (inactive)	17.2 µM (inactive)	1.29 µM (inactive)	43.7 µM (inactive)	11.5 µM (inactive)
